Experimental data as given in patent US10508109B2 (priority 2015, dated 2019).
Like-named read-outs stand apart in the source and are kept apart here.

Legend:
A549 = assay: Cell-based assay, anti-proliferative activity (Cell Counting Kit-8, 72 hours); details: read-out: IC50 (μM) A549
Procedure, shortened: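 Seed cells in 96-well format; add inhibitors; measure growth by CCK-8 at end of exposure; derive IC50.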

CCD-18Co = assay: as above; details: read-out: IC50 (μM) CCD-18Co
Procedure, shortened: (§1)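 CCK-8 viability read 72 h after compound exposure over an 8-point series from 1.5625 to 100 micro-M plus zero. Seeding density 2,000–3,000 cells/well; IC50 from the dilution series.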

HCT-116 = assay: as above; details: read-out: IC50 (μM) HCT-116
Procedure, shortened: as §1

HFL1 = assay: as above; details: read-out: IC50 (μM) HFL1
Procedure, shortened: as §1

PC14 = assay: as above; details: read-out: IC50 (μM) PC14
Procedure, shortened: as §1

SUV39H2 = SUV39H2 (Homo sapiens (Human), UniProt Q9H5I1); details: read-out: IC50 (μM) Suv 39H2 assay; enzyme assay
[1] = Homo sapiens, A549 cells, Cell Counting Kit-8, 72 hours
[2] = Homo sapiens, CCD-18Co cells, Cell Counting Kit-8, 72 hours
[3] = Homo sapiens, HCT-116 cells, Cell Counting Kit-8, 72 hours
[4] = Homo sapiens, HFL1 cells, Cell Counting Kit-8, 72 hours
[5] = Homo sapiens, PC-14, PC14 cells, Cell Counting Kit-8, 72 hours
[6] = Homo sapiens, A549 cells, 72 hours, Cell Counting Kit-8
[7] = Homo sapiens, CCD-18Co cells, 72 hours, Cell Counting Kit-8
[8] = Homo sapiens, HCT-116 cells, 72 hours, Cell Counting Kit-8
[9] = Homo sapiens, HFL1 cells, 72 hours, Cell Counting Kit-8
[10] = Homo sapiens, PC-14, PC14 cells, 72 hours, Cell Counting Kit-8

Sequence of SUV39H2 (Q9H5I1 whole entry): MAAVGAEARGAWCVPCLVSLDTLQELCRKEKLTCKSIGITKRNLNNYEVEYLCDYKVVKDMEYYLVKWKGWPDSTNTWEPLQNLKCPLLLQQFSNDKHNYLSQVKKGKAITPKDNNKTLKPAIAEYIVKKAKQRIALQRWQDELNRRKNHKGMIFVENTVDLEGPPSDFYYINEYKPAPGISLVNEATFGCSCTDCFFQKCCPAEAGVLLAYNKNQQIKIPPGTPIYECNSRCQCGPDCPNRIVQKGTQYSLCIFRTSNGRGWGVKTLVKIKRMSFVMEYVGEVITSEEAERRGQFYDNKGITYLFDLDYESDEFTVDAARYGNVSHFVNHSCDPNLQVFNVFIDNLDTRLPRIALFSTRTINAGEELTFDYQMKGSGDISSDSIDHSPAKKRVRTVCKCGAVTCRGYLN

Q: CCCCCNC1CCN(c2ccn3cc(-c4cc(Cl)c(OC)cc4OC)nc3c2)CC1 [Example 129, 1-[2-(5-chloro-2,4-dimethoxyphenyl)imidazo[1,2-a]pyridin-7-yl]-N-pentylpiperidin-4-amine] was tested. Which IC50 (A549; [1]) did it give?
A: 1.5 µM

Q: And the IC50 (CCD-18Co; [2])?
A: 1.3 µM

Q: What about the IC50 (HCT-116; [3]) of the same molecule?
A: 0.74 µM

Q: What about the IC50 (HFL1; [4]) of the same molecule?
A: 0.7 µM

Q: And the IC50 (PC14; [5])?
A: 1.7 µM

Q: And the IC50 (SUV39H2)?
A: 0.00841 µM

Q: For CCS(=O)(=O)N1CCN(c2ccn3cc(-c4cc(Cl)c(OC)cc4OCCCN(C)C)nc3c2)CC1 [Example 199, 3-(4-chloro-2-(7-(4-(ethylsulfonyl)piperazin-1-yl)imidazo[1,2-a]pyridin-2-yl)-5-methoxyphenoxy)-N,N-dimethylpropan-1-amine], which IC50 (A549; [1]) is on record?
A: 5.2 µM

Q: And the IC50 (CCD-18Co; [2])?
A: 3.9 µM

Q: And the IC50 (HCT-116; [3])?
A: 6.4 µM

Q: What about the IC50 (HFL1; [4]) of the same molecule?
A: 4.8 µM

Q: What about the IC50 (PC14; [5]) of the same molecule?
A: 3 µM

Q: What about the IC50 (SUV39H2) of the same molecule?
A: 0.0168 µM

Q: For COc1cc(OC)c(-c2cn3ccc(N4CCN(CCCN(C)C)CC4)cc3n2)cc1Br [Example 130, 3-(4-(2-(5-bromo-2,4-dimethoxyphenyl)imidazo[1,2-a]pyridin-7-yl)-piperazin-1-yl)-N,N-dimethylpropan-1-amine], which IC50 (A549; [1]) is on record?
A: 2.7 µM

Q: And the IC50 (CCD-18Co; [2])?
A: 6.6 µM

Q: What about the IC50 (HCT-116; [3]) of the same molecule?
A: 2.8 µM

Q: And the IC50 (HFL1; [4])?
A: 4.6 µM

Q: What about the IC50 (PC14; [5]) of the same molecule?
A: 2.6 µM

Q: And the IC50 (SUV39H2)?
A: 0.003 µM

Q: With “4-(2-(5-chloro-2,4-dimethoxyphenyl)imidazo[1,2-a]pyridin-7-yl)-N-(pyrrolidin-2-ylmethyl)benzamide [Example 249]” as the molecule, how does the IC50 (A549; A549 cells, 72 hours, Cell Counting Kit-8) read?
A: 5.4 µM

Q: And the IC50 (CCD-18Co; CCD-18Co cells, 72 hours, Cell Counting Kit-8)?
A: 5.2 µM

Q: What about the IC50 (HCT-116; HCT-116 cells, 72 hours, Cell Counting Kit-8) of the same molecule?
A: 3.7 µM

Q: What about the IC50 (HFL1; HFL1 cells, 72 hours, Cell Counting Kit-8) of the same molecule?
A: 5.4 µM

Q: What about the IC50 (PC14; PC14 cells, 72 hours, Cell Counting Kit-8) of the same molecule?
A: 4.8 µM

Q: And the IC50 (SUV39H2)?
A: 0.035 µM

Q: For COc1cc(OC)c(-c2cn3ccc(NC(=O)[C@@H](N)Cc4c[nH]c5ccccc45)cc3n2)cc1Cl [Example 250, (S)-2-amino-N-(2-(5-chloro-2,4-dimethoxyphenyl)imidazo[1,2-a]pyridin-7-yl)-3-(1H-indol-3-yl)propanamide], which IC50 (A549; Homo sapiens, A549, 72 h) is on record?
A: 6.6 µM

Q: What about the IC50 (CCD-18Co; Homo sapiens, CCD-18Co, 72 h) of the same molecule?
A: 4 µM

Q: What about the IC50 (HCT-116; Homo sapiens, HCT-116, 72 h) of the same molecule?
A: 6.9 µM

Q: And the IC50 (HFL1; Homo sapiens, HFL1, 72 h)?
A: 3.6 µM

Q: What about the IC50 (PC14; Homo sapiens, PC-14, 72 h) of the same molecule?
A: 4.2 µM

Q: What about the IC50 (SUV39H2) of the same molecule?
A: 0.0427 µM

Q: What does the source list for COc1cc(OCCCN(C)C)c(-c2cn3ccc(N4CCN(S(=O)(=O)C(C)C)CC4)nc3n2)cc1Cl [Example 226, 3-(4-chloro-2-(7-(4-(isopropylsulfonyl)piperazin-1-yl)imidazo[1,2-a]-pyrimidin-2-yl)-5-methoxyphenoxy)-N,N-dimethylpropan-1-amine]?
A: IC50 (A549; [6]): 10 µM; IC50 (CCD-18Co; [7]): 10 µM; IC50 (HCT-116; [8]): 7.8 µM; IC50 (HFL1; [9]): 8.9 µM; IC50 (PC14; [10]): 5.5 µM; IC50 (SUV39H2): 0.0655 µM

Q: What does the source list for COc1cc(OC)c(-c2cn3ccc(N4CCN(S(=O)(=O)C5CC5)CC4)cc3n2)cc1Cl [Example 103, 2-(5-chloro-2,4-dimethoxyphenyl)-7-[4-(cyclopropylsulfonyl)piperazin-1-yl]imidazo[1,2-a]pyridine]?
A: IC50 (A549; [1]): 1.3 µM; IC50 (CCD-18Co; [2]): 1.6 µM; IC50 (HCT-116; [3]): 0.55 µM; IC50 (HFL1; [4]): 0.61 µM; IC50 (PC14; [5]): 0.7 µM; IC50 (SUV39H2): 0.0103 µM

Q: What does the source list for COc1cc(OC)c(-c2cn3ccc(N4CCN(CCCC(=O)O)CC4)cc3n2)cc1Cl [Example 240, 4-(4-(2-(5-chloro-2,4-dimethoxyphenyl)imidazo[1,2-a]pyridine-7-yl)piperazin-1-yl)butanoic acid]?
A: IC50 (A549; [6]): 10 µM; IC50 (CCD-18Co; [7]): 10 µM; IC50 (HCT-116; [8]): 10 µM; IC50 (HFL1; [9]): 10 µM; IC50 (PC14; [10]): 10 µM; IC50 (SUV39H2): 0.0063 µM

Q: COc1cc(OC)c(-c2cn3ccc(NC(=O)[C@@H](N)C(C)C)cc3n2)cc1Cl [Example 252, (S)-2-amino-N-(2-(5-chloro-2,4-dimethoxyphenyl)imidazo[1,2-a]pyridin-7-yl)-3-methylbutanamide] was tested. Which IC50 (A549; Homo sapiens, A549, 72 h) did it give?
A: 7.8 µM

Q: What about the IC50 (CCD-18Co; Homo sapiens, CCD-18Co, 72 h) of the same molecule?
A: 4.7 µM

Q: What about the IC50 (HCT-116; Homo sapiens, HCT-116, 72 h) of the same molecule?
A: 5.4 µM

Q: What about the IC50 (HFL1; Homo sapiens, HFL1, 72 h) of the same molecule?
A: 5.9 µM

Q: And the IC50 (PC14; Homo sapiens, PC-14, 72 h)?
A: 6.3 µM

Q: What about the IC50 (SUV39H2) of the same molecule?
A: 0.0423 µM

Q: How did the IC50 (A549; [6]) turn out when COc1cc(OC)c(-c2cn3ccc(-c4ccc(C(=O)O)cc4)cc3n2)cc1Cl [Example 246, 4-(2-(5-chloro-2,4-dimethoxyphenyl)imidazo[1,2-a]pyridin-7-yl)benzoic acid] was run?
A: 10 µM

Q: What about the IC50 (CCD-18Co; [7]) of the same molecule?
A: 10 µM

Q: What about the IC50 (HCT-116; [8]) of the same molecule?
A: 10 µM

Q: And the IC50 (HFL1; [9])?
A: 10 µM

Q: What about the IC50 (PC14; [10]) of the same molecule?
A: 10 µM

Q: And the IC50 (SUV39H2)?
A: 0.0143 µM
